These results are taken from patent US12220417B2, “Pharmaceutical compositions comprising (S)-2-(2,6-dioxopiperidin-3-yl)-4-((2-fluoro-4-((3-morpholinoazetidin-1-yl)methyl)benzyl)amino)isoindoline-1,3-dione and methods of using the same” (Celgene Corporation, priority 2019, dated 2025).

For orientation: IC50 means the concentration that inhibits the measured activity by half.

SMILES strings stand for the structures.

Series [1] in a line: Solubility of Compound 1. Format: physicochemical. As to conditions: compared to the low dose / proposed dose levels.
Series [2] has as its system WA-OSEL. Briefly: Flow cytometry viability/apoptosis assay, WA-OSEL. It is filed as cell-based. Particulars: CLL, 120 hours, read-out: % Viable Cells IC50. On the procedure:
(§1) Cell Proliferation and Viability Assay Using Hematological Cell Lines: The following exemplary anti-proliferative assay uses exemplary hematological cell lines in the following. The in vitro growth inhibitory activity of Compound 1 described herein was evaluated using a 384-well flow cytometry assay.
(§2) The cell lines were plated in 384-well flat bottom plates and assessed with increasing concentrations of compound ranging from 0.00015 to 10 μM or dimethyl sulfoxide (DMSO) control. The final concentration of DMSO was 0.1% (v/v). Following the addition of Compound 1 or DMSO and incubation for 120 hours, cell number and cell death were analyzed by flow cytometry (Attune®, Thermo Fisher) using Annexin V and the live-cell impermeant DNA dye, DRAQ7. […]
(§3) Flow cytometry data analysis was then performed using the Flow Jo_v10 software to determine the number of viable cells (Annexin V and DRAQ7 double negative staining cells) and percentage of apoptotic cells (Annexin V positive cells) for each condition. […] The IC50 (50% inhibitory concentration) and Emax (maximum efficacy achieved) values were then calculated by performing nonlinear regression curve fitting using log(inhibitor) vs. normalized response—variable slope analysis on GraphPad Prism 7.03. Area under the curve (AUC) was calculated by performing area under curve analysis on GraphPad Prism 7.03. […]
For orientation: In flow cytometry, cells or beads pass a laser one at a time.

Series [3] has as its system PGA1. Briefly: Flow cytometry viability/apoptosis assay, PGA1. It is filed as cell-based. As to conditions: PGA1, CLL; 120 hours; read-out: % Viable Cells IC50. The procedure:
as §1, §2, §3

In series [4] the test system is CII. Briefly: Flow cytometry viability/apoptosis assay, CII. It is filed as cell-based. Particulars: CLL, 120 hours, read-out: % Viable Cells IC50. The procedure:
as §1, §2, §3

Series [5] deals with DB. Briefly: Flow cytometry viability/apoptosis assay, DB. As to conditions: Homo sapiens, DLBCL GCB, 120 hours, read-out: % Viable Cells IC50. It is filed as cell-based. On the procedure:
as §1, §2, §3

In series [6] the test system is HG3. Briefly: Flow cytometry viability/apoptosis assay, HG3. Format: cell-based. Particulars: HG-3; HG3, CLL; 120 hours; read-out: % Viable Cells IC50. The procedure:
as §1, §2, §3

Series [7] concerns OCI-LY3. Briefly: Flow cytometry viability/apoptosis assay, OCI-LY3. Particulars: Homo sapiens; OCI-LY3, DLBCL ABC; 120 hours; read-out: % Viable Cells IC50. It is filed as cell-based. On the procedure: as §1, §2, §3
Series [8] deals with hematological cell lines. Briefly: Cell Proliferation and Viability Assay Using Hematological Cell Lines (whole panel). Format: cell-based. Particulars: panel of hematological cell lines, 0.00015 to 10 μM, 5 days. The procedure: as §1, §2, §3
Series [9] relates to ROS-50. Briefly: Flow cytometry viability/apoptosis assay, ROS-50. It is filed as cell-based. As to conditions: ROS-50, DLBCL; 120 hours; read-out: % Viable Cells IC50. The procedure:
as §1, §2, §3

In series [10] the test system is Mec1. Briefly: Flow cytometry viability/apoptosis assay, Mec1. It is filed as cell-based. As to conditions: Homo sapiens; Mec1, CLL; 120 hours; read-out: % Viable Cells IC50. The procedure:
as §1, §2, §3

For the compound `Cl.O=C1CC[C@H](N2C(=O)c3cccc(NCc4ccc(CN5CC(N6CCOCC6)C5)cc4F)c3C2=O)C(=O)N1` [Compound 1 HC, salt], the solubility result in series [1] was “relatively high”.
On to `O=C1CC[C@H](N2C(=O)c3cccc(NCc4ccc(CN5CC(N6CCOCC6)C5)cc4F)c3C2=O)C(=O)N1` [Compound 1, (S)-2-(2,6-dioxopiperidin-3-yl)-4-((2-fluoro-4-((3-morpholinoazetidin-1-yl)methyl)benzyl)amino)isoindoline-1,3-dione], for which the solubility result in series [1] is on record as “relatively high”. For the same compound, the IC50 in series [2], in [3], in series [4], in series [5], in series [6] and in series [7] was ≥ 10 µM each time. Besides, the IC50 in series [9] and in series [10] was ≥ 10 µM each time. The “antiproliferative activity and/or apoptotic effects” value in series [8] is “antiproliferative activity and/or apoptotic effects in almost all hematological cell lines tested”.
